Measurements taken from US20250136606A1, “MODULATORS OF TRPML, THEIR COMPOSITIONS AND METHODS OF USE” (Caraway Therapeutics, Inc., priority 2021, published 2025).
pEC50: −log10 of the molar value. Like-named read-outs stand apart in the source and are kept apart here.

How the values were obtained:
Type in all cases: cell-based
TRPML2 = target: T1, TRPML2 (Homo sapiens, UniProt Q8IZK6); assay: Fluorescent TRPML2 assay (performed as for TRPML1, substituting the TRPML2 subtype); conditions: fluorescent calcium assay
T1 construct: expressed in transfected cells
T1 sequence (Q8IZK6 1-566): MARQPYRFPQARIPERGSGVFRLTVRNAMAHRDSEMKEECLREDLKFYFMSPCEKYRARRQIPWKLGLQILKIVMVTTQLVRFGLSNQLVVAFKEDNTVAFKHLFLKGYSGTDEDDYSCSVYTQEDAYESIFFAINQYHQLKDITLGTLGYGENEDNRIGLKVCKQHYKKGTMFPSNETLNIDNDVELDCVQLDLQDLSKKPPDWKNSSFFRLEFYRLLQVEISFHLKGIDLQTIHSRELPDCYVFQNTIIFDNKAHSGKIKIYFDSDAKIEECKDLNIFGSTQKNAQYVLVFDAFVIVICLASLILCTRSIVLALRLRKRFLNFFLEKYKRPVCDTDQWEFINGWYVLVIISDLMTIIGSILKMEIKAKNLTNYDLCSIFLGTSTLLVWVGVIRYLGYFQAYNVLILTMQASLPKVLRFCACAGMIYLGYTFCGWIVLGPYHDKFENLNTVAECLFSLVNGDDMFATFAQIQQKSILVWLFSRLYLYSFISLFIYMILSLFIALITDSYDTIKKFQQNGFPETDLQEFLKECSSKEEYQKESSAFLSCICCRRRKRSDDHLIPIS
Method: (§1) HEK-293 Trex cells were stably transfected with a construct consisting of the human coding sequence for TRPML1 cloned into the […] plasmid pCDNA5 T/O. Mutations were introduced into the TRPML1 sequence to facilitate expression on the cell surface (Silvia Vergarajauregui, Rosa Puertollano, Traffic. 2006 March; 7(3): 337-353). Briefly, the cells are cultured in 150 mm round tissue culture dishes containing 20 mL of media. The day before the assay the cells are rinsed with DPBS-Ca—Mg and then treated briefly with Trypsin-EDTA. The Trypsin-EDTA is diluted with growth media, and cells are counted. 38×10^6 cells are re-plated into 150 mm round tissue culture dishes in media containing 0.5 ug/mL doxycycline to induce expression of hTRPML1.
(§2) The day of the experiment cells are lifted from the plates as above and collected by centrifugation. The cells are then suspended in dye loading buffer consisting of Ringer's solution supplemented with 0.1% Pluronic Acid and 1 micromolar Fluo4-AM dye. Cells are loaded for ˜60 minutes in the dark with occasional mixing. The cells are collected by centrifugation, the loading media aspirated, and the cells resuspended in 25 mL Ringer's solution and incubated ˜60 minutes in the dark. The cells are again collected by centrifugation, rinsed in Ringer's Solution and resuspended to […] in modified Ringer's solution containing 10 mM calcium.
(§3) Compounds are dissolved to a concentration of 10 millimolar with DMSO. Compound plates are created by dispensing compounds into 384 well black wall clear bottom plates (Greiner 781091). Positive and negative controls are included on each plate. Typically, different amounts of each compound are tested ranging from 100 nanoMoles (20 micromolar final concentration) decreasing in half-log steps to 31 picoMoles (6 nanomolar final concentration). Each concentration is typically tested in triplicate.
(§4) 50 microliters of dye-loaded cells are dispensed into each well of the compound assay plate created above. The fluorescence in each well is then determined with an excitation wavelength of 480 nm and an emission wavelength of 540 nm using either a Molecular Devices SpectraMax multimode plate reader or a Hamamatsu FDSS/uCell plate imager.
(§5) The resulting fluorescence for each well is exported as an ascii file and loaded into our LIMS for analysis. The percent activity of each compound at each concentration is determined by comparison to the positive and negative control wells included in each plate.
(§6) TRPML2 and TRPML3 Assays Assays for TRPML2 and TRPML3 were performed as above for TRPML1, by substituting the appropriate TRPML2 or TRPML3 subtype for the TRPML1.
(§7) EC50 values were calculated using a non-linear regression of Prism. In the table, “A” indicates an EC50 of less than 100 nM, “B” indicates an EC50 range from 100 nM to 500 nM; “C” indicates an EC50 range from 500 nM to 2 μM; and “D” indicates an EC50 greater than 2 μM.

TRPML3 = target: T2, TRPML3 (Homo sapiens, UniProt Q8TDD5); assay: Fluorescent TRPML3 assay (performed as for TRPML1, substituting the TRPML3 subtype)
T2 construct: expressed in transfected cells
T2 sequence (Q8TDD5 1-553): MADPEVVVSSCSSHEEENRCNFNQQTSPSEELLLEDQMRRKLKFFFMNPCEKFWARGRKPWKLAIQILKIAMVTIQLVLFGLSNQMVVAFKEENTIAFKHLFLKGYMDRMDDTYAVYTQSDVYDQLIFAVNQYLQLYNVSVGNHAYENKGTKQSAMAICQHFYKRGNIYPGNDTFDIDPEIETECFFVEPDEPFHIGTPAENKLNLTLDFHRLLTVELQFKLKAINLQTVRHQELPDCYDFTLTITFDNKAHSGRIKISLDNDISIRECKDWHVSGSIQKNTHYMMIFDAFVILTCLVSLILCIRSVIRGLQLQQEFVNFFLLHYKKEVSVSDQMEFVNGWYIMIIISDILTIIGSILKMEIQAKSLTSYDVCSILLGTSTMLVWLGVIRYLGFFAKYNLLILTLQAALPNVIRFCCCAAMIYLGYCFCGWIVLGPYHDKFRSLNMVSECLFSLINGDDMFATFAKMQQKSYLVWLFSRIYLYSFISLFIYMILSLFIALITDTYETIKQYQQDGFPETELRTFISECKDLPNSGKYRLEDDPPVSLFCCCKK
Method: as §1, §2, §3, §4, §5, §6, §7

TRPML1 = TRPML1 (Homo sapiens, UniProt Q9GZU1); assay: Fluorescent TRPML1 assay (Fluo4-AM calcium fluorescence in doxycycline-induced HEK-293 Trex cells)
Outline: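 hTRPML1 (mutated for cell-surface expression) in HEK-293 Trex, dox 0.5 ug/mL o/n; Fluo4-AM 1 uM ~60 min, then ~60 min de-esterification, dark; modified Ringer's + 10 mM Ca. Cmpds 20 uM–6 nM final, half-log, n=3. Ex480/Em540; % activity vs ctrls; EC50 by nonlinear regression.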

TRPML1, sequence (Q9GZU1 whole entry L15A/L16A/L577A/L578A, form open): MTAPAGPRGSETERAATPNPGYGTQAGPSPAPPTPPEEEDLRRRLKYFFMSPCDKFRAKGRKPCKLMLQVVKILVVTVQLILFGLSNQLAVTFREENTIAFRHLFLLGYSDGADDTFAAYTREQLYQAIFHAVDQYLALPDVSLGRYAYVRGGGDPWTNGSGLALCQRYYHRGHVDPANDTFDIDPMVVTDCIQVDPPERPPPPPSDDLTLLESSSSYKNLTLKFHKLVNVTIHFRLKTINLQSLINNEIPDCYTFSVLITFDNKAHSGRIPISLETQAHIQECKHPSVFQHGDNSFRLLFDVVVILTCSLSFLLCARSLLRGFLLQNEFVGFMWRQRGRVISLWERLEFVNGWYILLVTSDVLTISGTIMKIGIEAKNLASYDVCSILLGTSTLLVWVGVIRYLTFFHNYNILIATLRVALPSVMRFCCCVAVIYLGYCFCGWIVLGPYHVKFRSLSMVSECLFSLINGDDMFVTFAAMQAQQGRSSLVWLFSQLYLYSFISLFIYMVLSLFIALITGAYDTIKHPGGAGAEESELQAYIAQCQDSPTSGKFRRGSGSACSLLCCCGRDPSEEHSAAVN

Compound | pEC50 (TRPML2) | pEC50 (TRPML3; fluorescent calcium assay) | pEC50 (TRPML1; fluorescent calcium assay) | pEC50 (TRPML3) | pEC50 (TRPML1)
Cc1cncc(-n2cc(C3CC3)c3c(N4CCN(C(=O)OC(C)(C)C)[C@@H](C)C4)ncnc32)c1 (single isomer, unassigned) [Compound 174] | 5.70 to 6.30 | 6.30 to 7.00 | 6.30 to 7.00 | – | –
Cc1cncc(-n2cc(C3CC3)c3c(N4CCN(C(=O)OC(C)(C)C)[C@H](C)C4)ncnc32)c1 (single isomer, unassigned) [Compound 175] | < 5.70 | 5.70 to 6.30 | 5.70 to 6.30 | – | –
CC(C)(C)OC(=O)N1CCN(c2ncnc3c2c(C2CC2)cn3-c2cc(F)cc(F)c2)C[C@H]1CF (single isomer, unassigned) [Compound 269] | 5.70 to 6.30 | > 7.00 | 6.30 to 7.00 | – | –
C[C@H]1CN(C(=O)OC(C)(C)C)CCN1c1ncnc2c1c(-c1ccccc1)cn2-c1cc(C#N)ccn1 [Compound 320, tert-butyl (S)-4-(7-(4-cyanopyridin-2-yl)-5-phenyl-7H-pyrrolo[2,3-d]pyrimidin-4-yl)-3-methylpiperazine-1-carboxylate] | 6.30 to 7.00 | – | > 7.00 | – | –
COC(=O)N1CCN(c2ncnc3c2c(-c2ccccc2F)cn3-c2cc(C#N)ccn2)[C@@H](C)C1 [Compound 351, methyl (S)-4-(7-(4-cyanopyridin-2-yl)-5-(2-fluorophenyl)-7H-pyrrolo[2,3-d]pyrimidin-4-yl)-3-methylpiperazine-1-carboxylate] | 5.70 to 6.30 | – | > 7.00 | – | –
Cc1c(C(F)(F)F)c2c(N3C[C@@H](C)N(C(=O)OC(C)(C)C)C[C@@H]3C)ncnc2n1-c1cc(C#N)ccn1 [Compound 531, tert-butyl (2R,5S)-4-(7-(4-cyanopyridin-2-yl)-6-methyl-5-(trifluoromethyl)-7H-pyrrolo[2,3-d]pyrimidin-4-yl)-2,5-dimethylpiperazine-1-carboxylate] | – | – | – | 6.30 to 7.00 | 6.30 to 7.00
C[C@@H]1CN(c2ncnc3c2c(C(F)F)cn3-c2cc(F)cc(F)c2)[C@@H](C)CN1C(=O)OC1(C)CC1 [Compound 607, 1-methylcyclopropyl (2R,5S)-4-(5-(difluoromethyl)-7-(3,5-difluorophenyl)-7H-pyrrolo[2,3-d]pyrimidin-4-yl)-2,5-dimethylpiperazine-1-carboxylate] | – | – | – | 5.70 to 6.30 | 6.30 to 7.00
C[C@@H]1CN(c2ncnc3c2c(C(F)F)cn3-c2cc(F)ccn2)[C@@H](C)CN1C(=O)OC1(C)CC1 [Compound 611, 1-methylcyclopropyl (2R,5S)-4-(5-(difluoromethyl)-7-(4-fluoropyridin-2-yl)-7H-pyrrolo[2,3-d]pyrimidin-4-yl)-2,5-dimethylpiperazine-1-carboxylate] | – | – | – | 6.30 to 7.00 | 6.30 to 7.00
C[C@@H]1CN(c2ncnc3c2c(C(F)F)cn3-c2cc(C#N)ccn2)[C@@H](C)CN1C(=O)OC1(C)CC1 [Compound 613, 1-methylcyclopropyl (2R,5S)-4-(7-(4-cyanopyridin-2-yl)-5-(difluoromethyl)-7H-pyrrolo[2,3-d]pyrimidin-4-yl)-2,5-dimethylpiperazine-1-carboxylate] | – | – | – | > 7.00 | > 7.00
C[C@@H]1CN(c2ncnc3c2c(C(F)(F)F)cn3C2CCCC2)[C@@H](C)CN1C(=O)OC(C)(C)C [Compound 626, tert-butyl (2R,5S)-4-(7-cyclopentyl-5-(trifluoromethyl)-7H-pyrrolo[2,3-d]pyrimidin-4-yl)-2,5-dimethylpiperazine-1-carboxylate] | – | – | – | 5.70 to 6.30 | > 7.00
C[C@@H]1CN(c2ncnc3c2c(C(F)F)cn3C2CCCC2)[C@@H](C)CN1C(=O)OC(C)(C)C [Compound 628, tert-butyl (2R,5S)-4-(7-cyclopentyl-5-(difluoromethyl)-7H-pyrrolo[2,3-d]pyrimidin-4-yl)-2,5-dimethylpiperazine-1-carboxylate] | – | – | – | 5.70 to 6.30 | 5.70 to 6.30
C[C@@H]1CN(c2ncnc3c2c(C(F)(F)F)cn3C2CCOCC2)[C@@H](C)CN1C(=O)OC(C)(C)C [Compound 630, tert-butyl (2R,5S)-2,5-dimethyl-4-(7-(tetrahydro-2H-pyran-4-yl)-5-(trifluoromethyl)-7H-pyrrolo[2,3-d]pyrimidin-4-yl)piperazine-1-carboxylate] | – | – | – | < 5.70 | 5.70 to 6.30
C[C@@H]1CN(c2ncnc3c2c(C(F)(F)F)cn3[C@H]2CCCOC2)[C@@H](C)CN1C(=O)OC(C)(C)C [Compound 631, tert-butyl (2R,5S)-2,5-dimethyl-4-(7-((S)-tetrahydro-2H-pyran-3-yl)-5-(trifluoromethyl)-7H-pyrrolo[2,3-d]pyrimidin-4-yl)piperazine-1-carboxylate] | – | – | – | < 5.70 | 5.70 to 6.30
C[C@@H]1CN(c2ncnc3c2c(C(F)(F)F)cn3[C@@H]2CCCOC2)[C@@H](C)CN1C(=O)OC(C)(C)C [Compound 632, tert-butyl (2R,5S)-2,5-dimethyl-4-(7-((R)-tetrahydro-2H-pyran-3-yl)-5-(trifluoromethyl)-7H-pyrrolo[2,3-d]pyrimidin-4-yl)piperazine-1-carboxylate] | – | – | – | < 5.70 | 5.70 to 6.30
C[C@@H]1CN(c2ncnc3c2c(C(F)F)cn3C2CCC(C#N)C2)[C@@H](C)CN1C(=O)OC(C)(C)C (stereo partly drawn) [Compound 634] | – | – | – | 5.70 to 6.30 | 5.70 to 6.30
Cc1cn(-c2cncnc2)c2ncnc(N3C[C@@H](C)N(C(=O)OC(C)(C)C)C[C@@H]3C)c12 [Compound 674, tert-butyl (2R,5S)-2,5-dimethyl-4-(5-methyl-7-(pyrimidin-5-yl)-7H-pyrrolo[2,3-d]pyrimidin-4-yl)piperazine-1-carboxylate] | – | – | – | < 5.70 | < 5.70
Cc1cn(-c2cncnc2)c2ncnc(N3CCN(C(=O)OC(C)(C)C)C[C@@H]3C)c12 [Compound 691, tert-butyl (S)-3-methyl-4-(5-methyl-7-(pyrimidin-5-yl)-7H-pyrrolo[2,3-d]pyrimidin-4-yl)piperazine-1-carboxylate] | – | – | – | 5.70 to 6.30 | 5.70 to 6.30
Cc1cn(-c2cncc(C#N)c2)c2ncnc(N3CCN(C(=O)OC(C)(C)C)C[C@@H]3C)c12 [Compound 694, tert-butyl (S)-4-(7-(5-cyanopyridin-3-yl)-5-methyl-7H-pyrrolo[2,3-d]pyrimidin-4-yl)-3-methylpiperazine-1-carboxylate] | – | – | – | > 7.00 | 6.30 to 7.00
